Results published in patent publication US20100168008A1, “METHOD OF USE OF EPIREGULIN PROTEIN AND NUCLEIC ACID ENCODING THE SAME IN INFLAMMATORY CONDITIONS” (PIRAMAL LIFE SCIENCES LIMITED., priority 2006, published 2010).

Experiments:
EREG expression in PBMC = EREG expression in PBMC by real time polymerase chain reaction (RT-PCR); type: cell-based, Human; conditions: 10 μM drug
Description: Exposure of PBMCs to P979 and Rolipram: Human peripheral blood leukocytes were obtained from normal blood donors by density gradient separation, washed with PBS (phosphate buffered saline), and plated on petri dishes using RPMI medium. […] After 2 hours, cells were harvested and RNA was prepared.
Real Time Polymerase Chain Reaction (RT-PCR): To confirm the data obtained from microarray, we performed RT-PCR using specific primers for epiregulin gene.
EREG expression in PBMCs after exposure to anti-inflammatory agent was confirmed by real time polymerase chain reaction (RT-PCR). Microarray based gene expression profiling studied large-scale gene expression. RT PCR focused on the gene/genes of interest and expression analysis was carried out under similar experimental conditions.
The aliquot of RNA samples as used for microarray study was used for RT-PCR analysis. The experiment was carried out using cMaster™ RTplusPCR System kit from Eppendorf using the protocol as provided in the kit. Briefly, cDNA was synthesized using RNA from various sources as shown in the results and subsequently quantified during amplification step by incorporation of Syber green dye into the amplicons.

EREG expression in PBMCs = EREG expression in PBMCs after exposure to anti-inflammatory agent, microarray based expression profiling; type: cell-based, Human
Description: Exposure of PBMCs to P979 and Rolipram: Human peripheral blood leukocytes were obtained from normal blood donors by density gradient separation, washed with PBS (phosphate buffered saline), and plated on petri dishes using RPMI medium. Cells were treated for 30 minutes with test compounds at concentrations 0.3, 1.0 and 3.0 μM and with Rolipram at 300 μM as a control as shown in the results section and subsequently activated with bacterial lipopolysaccharide (LPS). After 2 hours, cells were harvested and RNA was prepared.
Preparation of RNA: RNA was prepared by adding 1 ml of trizol reagent (Sigma) subsequently purified using Qiagen-RNAEasy kit, using the instruction from manufacturer's protocol. Quality and quantity of RNA was measured by spectrometry and gel electrophoresis.
Gene expression profiling by microarray: A total of 10 μg of RNA was used to generate cRNA, which is subsequently labeled with Cy3 or Cy5 fluorescent dyes. Control and test cRNAs labeled with Cy3 and Cy5 respectively were pooled and hybridized to DNA chip. […] Following image analysis, image intensity for each of the 23, 290 spots were measured for test and control slides.
Gene expression was expressed as a ratio of the image intensity between test and control slide for a given gene (Table 3). […]

COc1ccc(C2CNC(=O)C2)cc1OC1CCCC1 (stereo not drawn) [Rolipram]
Log-fold Change (EREG expression) (EREG expression in PBMC): 1.2 | Ratio intensity (EREG expression, test vs control slide) (EREG expression in PBMCs; 300 μM drug, 30 minutes, then LPS activation, harvested after 2 hours): 1.03 | expression of epiregulin gene up-regulated (in words) (EREG expression in PBMCs; microarray): not
